Data published in PubChem BioAssay AID1963972 (Molecular Pharmacology Branch, DTP, NCI, 2024).

System: 945468-187-T-J2-PDC spheroids viability
Assay: Anticancer human tumor 945468-187-T-J2-PDC patient-derived rectal carcinoma cell line growth inhibition [PI3K]
Conditions: spheroids with HUVEC and MSC; for IC50: curve of first compound; for viability, T/C: stronger effect = lower value
Procedure, shortened: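 Stroma-containing spheroids: tumor line, pooled-donor HUVEC, hMSC. Treatments: targeted agents with PI3K inhibitors. Dosing: clinically relevant, half-log spacing, 10 microM ceiling without known Cmax. Read-out: cell viability.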

[1] = second compound 0.0316 µM, first compound 0.0316 µM
[2] = second compound 0.0316 µM, first compound 0.1 µM
[3] = second compound 0.0316 µM, first compound 0.316 µM
[4] = second compound 0.0316 µM, first compound 1 µM
[5] = second compound 0.0316 µM, first compound 3.16 µM
[6] = second compound 0.0316 µM, first compound 10 µM
[7] = second compound 0.1 µM, first compound 0.0316 µM
[8] = second compound 0.1 µM, first compound 0.1 µM
[9] = second compound 0.1 µM, first compound 0.316 µM
[10] = second compound 0.1 µM, first compound 1 µM
[11] = second compound 0.1 µM, first compound 3.16 µM
[12] = second compound 0.1 µM, first compound 10 µM
[13] = second compound 0.316 µM, first compound 0.0316 µM
[14] = second compound 0.316 µM, first compound 0.1 µM
[15] = second compound 0.316 µM, first compound 0.316 µM
[16] = second compound 0.316 µM, first compound 1 µM
[17] = second compound 0.316 µM, first compound 3.16 µM
[18] = second compound 0.316 µM, first compound 10 µM
[19] = second compound 1 µM, first compound 0.0316 µM
[20] = second compound 1 µM, first compound 0.1 µM
[21] = second compound 1 µM, first compound 0.316 µM
[22] = second compound 1 µM, first compound 1 µM
[23] = second compound 1 µM, first compound 3.16 µM
[24] = second compound 1 µM, first compound 10 µM
[25] = second compound 3.16 µM, first compound 0.0316 µM
[26] = second compound 3.16 µM, first compound 0.1 µM
[27] = second compound 3.16 µM, first compound 0.316 µM
[28] = second compound 3.16 µM, first compound 1 µM
[29] = second compound 3.16 µM, first compound 3.16 µM
[30] = second compound 3.16 µM, first compound 10 µM
[31] = second compound 10 µM, first compound 0.0316 µM
[32] = second compound 10 µM, first compound 0.1 µM
[33] = second compound 10 µM, first compound 0.316 µM
[34] = second compound 10 µM, first compound 1 µM
[35] = second compound 10 µM, first compound 3.16 µM
[36] = second compound 10 µM, first compound 10 µM
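Also: spheroids exposed to compounds for seven days before reading.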

C[C@@H](NC(=O)c1ncnc(N)c1Cl)c1ncc(C(=O)Nc2cc(C(F)(F)F)c(Cl)cn2)s1 + COc1c(OCCCN2CCOCC2)ccc2c3n(c(=NC(=O)c4cnc(N)nc4)nc12)CCN3
IC50 (second compound 0.00316 µM): > 10 µM | IC50 (second compound 0.01 µM): > 10 µM | IC50 (second compound 0.0316 µM): > 10 µM | IC50 (second compound 0.1 µM): > 10 µM | IC50 (second compound 0.316 µM): < 0.0316 µM | IC50 (second compound 1 µM): < 0.0316 µM | viability, T/C (second compound 0.00316 µM, first compound 0.0316 µM): 109% | viability, T/C (second compound 0.00316 µM, first compound 0.1 µM): 115% | viability, T/C (second compound 0.00316 µM, first compound 0.316 µM): 116% | viability, T/C (second compound 0.00316 µM, first compound 1 µM): 113% | viability, T/C (second compound 0.00316 µM, first compound 3.16 µM): 99.3% | viability, T/C (second compound 0.00316 µM, first compound 10 µM): 102% | viability, T/C (second compound 0.01 µM, first compound 0.0316 µM): 133% | viability, T/C (second compound 0.01 µM, first compound 0.1 µM): 119% | viability, T/C (second compound 0.01 µM, first compound 0.316 µM): 126% | viability, T/C (second compound 0.01 µM, first compound 1 µM): 119% | viability, T/C (second compound 0.01 µM, first compound 3.16 µM): 112% | viability, T/C (second compound 0.01 µM, first compound 10 µM): 125% | viability, T/C [1]: 108% | viability, T/C [2]: 94.6% | viability, T/C [3]: 111% | viability, T/C [4]: 142% | viability, T/C [5]: 96% | viability, T/C [6]: 122% | viability, T/C [7]: 94% | viability, T/C [8]: 102% | viability, T/C [9]: 94.9% | viability, T/C [10]: 95% | viability, T/C [11]: 92.7% | viability, T/C [12]: 92% | viability, T/C [13]: 46% | viability, T/C [14]: 49.3% | viability, T/C [15]: 50.9% | viability, T/C [16]: 57.7% | viability, T/C [17]: 53.5% | viability, T/C [18]: 63.9% | viability, T/C [19]: 24.4% | viability, T/C [20]: 26.1% | viability, T/C [21]: 25.6% | viability, T/C [22]: 22% | viability, T/C [23]: 23.5% | viability, T/C [24]: 26.8%

CC(Cn1ccc(-c2ccc(C#N)c(Cl)c2)n1)NC(=O)c1cc(C(C)O)[nH]n1 (stereo unspecified) + Cc1nc(NC(=O)N2CCCC2C(N)=O)sc1-c1ccnc(C(C)(C)C(F)(F)F)c1
IC50 (second compound 0.0316 µM): > 10 µM | IC50 (second compound 0.1 µM): > 10 µM | IC50 (second compound 0.316 µM): > 10 µM | IC50 (second compound 1 µM): > 10 µM | IC50 (second compound 3.16 µM): > 10 µM | IC50 (second compound 10 µM): > 10 µM | viability, T/C [1]: 118% | viability, T/C [2]: 94.1% | viability, T/C [3]: 115% | viability, T/C [4]: 96.3% | viability, T/C [5]: 90.7% | viability, T/C [6]: 82.5% | viability, T/C [7]: 90.7% | viability, T/C [8]: 81% | viability, T/C [9]: 90.8% | viability, T/C [10]: 100% | viability, T/C [11]: 104% | viability, T/C [12]: 82.1% | viability, T/C [13]: 100% | viability, T/C [14]: 95.6% | viability, T/C [15]: 109% | viability, T/C [16]: 80% | viability, T/C [17]: 89.6% | viability, T/C [18]: 83.4% | viability, T/C [19]: 95.4% | viability, T/C [20]: 84.9% | viability, T/C [21]: 79.4% | viability, T/C [22]: 101% | viability, T/C [23]: 79.3% | viability, T/C [24]: 84.7% | viability, T/C [25]: 81% | viability, T/C [26]: 84.2% | viability, T/C [27]: 78.4% | viability, T/C [28]: 83.5% | viability, T/C [29]: 71.7% | viability, T/C [30]: 74.9% | viability, T/C [31]: 76.9% | viability, T/C [32]: 76.3% | viability, T/C [33]: 73.3% | viability, T/C [34]: 68% | viability, T/C [35]: 69% | viability, T/C [36]: 61.5%

Cn1ncc(Cl)c1-c1cc(C(=O)NC(CN)Cc2cccc(F)c2)sc1Cl (stereo unspecified) + CC(Nc1ncnc2nc[nH]c12)c1cc2cccc(Cl)c2c(=O)n1-c1ccccc1
IC50 (second compound 0.0316 µM): > 10 µM | IC50 (second compound 0.1 µM): > 10 µM | IC50 (second compound 0.316 µM): > 10 µM | IC50 (second compound 1 µM): > 10 µM | IC50 (second compound 3.16 µM): > 10 µM | IC50 (second compound 10 µM): > 10 µM | viability, T/C [1]: 97.5% | viability, T/C [2]: 89.3% | viability, T/C [3]: 96.3% | viability, T/C [4]: 91.5% | viability, T/C [5]: 83.9% | viability, T/C [6]: 59.2% | viability, T/C [7]: 91.1% | viability, T/C [8]: 93.3% | viability, T/C [9]: 129% | viability, T/C [10]: 91.7% | viability, T/C [11]: 93.2% | viability, T/C [12]: 59.8% | viability, T/C [13]: 90.6% | viability, T/C [14]: 122% | viability, T/C [15]: 104% | viability, T/C [16]: 105% | viability, T/C [17]: 84.2% | viability, T/C [18]: 65.5% | viability, T/C [19]: 99% | viability, T/C [20]: 115% | viability, T/C [21]: 106% | viability, T/C [22]: 98.1% | viability, T/C [23]: 77.8% | viability, T/C [24]: 73.3% | viability, T/C [25]: 83.3% | viability, T/C [26]: 103% | viability, T/C [27]: 92.5% | viability, T/C [28]: 71% | viability, T/C [29]: 81.8% | viability, T/C [30]: 61% | viability, T/C [31]: 99.6% | viability, T/C [32]: 99.6% | viability, T/C [33]: 90.6% | viability, T/C [34]: 94.2% | viability, T/C [35]: 74.4% | viability, T/C [36]: 70.1%
